Values of other authors as cited in patent US20240261254A1, “DIHYDROMYRICETIN NANOEMULSION FORMULATIONS AND METHODS FOR FORMING THEM” (Cheers Health, Inc., priority 2018, published 2024).

BCS class (low solubility and permeability): BCS class IV
oral bioavailability (reference [39]): less than 5%
SMILES: O=C1c2c(O)cc(O)cc2O[C@H](c2cc(O)c(O)c(O)c2)[C@H]1O [DHM, dihydromyricetin]
